Data from US11542313B2, “Incretin analogs and uses thereof” (Eli Lilly and Company, priority 2017, dated 2023).
*1 amine or outer side, *2 acyl side, *3 side chain or, on linkers, in order; H or OH if unused. Where a SMILES comes first, the peptide text is derived from it. Side-chain parts run from the residue outwards. [ ]: non-standard residue; d: D form. The star is where a group is joined. C20 diacid = O=C(O)CCCCCCCCCCCCCCCCCCC(=O)*; γGlu = O=C(O)[C@H](CCC(=O)[*:2])N[*:1]; αMeL = CC(C)C[C@](C)(N)C(=O)O; AEEA = NCCOCCOCC(=O)O; Aib = CC(C)(N)C(=O)O

Assays:
[1] = target: T1, human GIP receptor (GIPR) (Homo sapiens, UniProt P48546); assay: Radioligand competition binding (SPA), human GIPR membranes
T1 construct: expressed in transfected cells; host or cells: HEK293 (membranes)
T1 sequence (P48546 22-466): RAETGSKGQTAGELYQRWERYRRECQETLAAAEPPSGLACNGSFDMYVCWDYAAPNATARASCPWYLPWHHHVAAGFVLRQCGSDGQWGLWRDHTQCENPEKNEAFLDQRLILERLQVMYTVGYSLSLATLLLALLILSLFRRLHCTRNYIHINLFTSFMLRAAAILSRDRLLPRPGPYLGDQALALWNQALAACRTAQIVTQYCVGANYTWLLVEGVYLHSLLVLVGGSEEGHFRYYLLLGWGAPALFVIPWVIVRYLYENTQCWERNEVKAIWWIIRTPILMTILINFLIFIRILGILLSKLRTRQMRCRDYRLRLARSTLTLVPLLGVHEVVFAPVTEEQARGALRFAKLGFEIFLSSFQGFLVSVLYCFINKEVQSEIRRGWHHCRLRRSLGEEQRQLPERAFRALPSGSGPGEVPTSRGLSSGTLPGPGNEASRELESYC
Description: (§1) Radioligand competition binding assays are run to determine the equilibrium dissociation constant for exemplary compounds and comparator molecules.
(§2) Competition curves are plotted as the percent specific inhibition (y-axis) versus log concentration of compound (x-axis) and analyzed using a four parameter nonlinear regression fit with variable slope (ABase or Genedata).

[2] = Pharmacokinetics in male Sprague Dawley rats; conditions: for CL/F / Tmax / half-life: male, Sprague-Dawley, rat, plasma, sc, 100 nmol/kg; for AUCINF_D_obs / Cmax/D: single subcutaneous 100 nMol/kg, male Sprague Dawley rats, n = 3
Description: The pharmacokinetics of the exemplary analogs are evaluated following a single subcutaneous administration of 100 nM/kg to male Sprague Dawley rats. Blood samples are collected over 120 hours, and resulting individual plasma concentrations are used to calculate pharmacokinetic parameters. Peptide plasma (K3 EDTA) concentrations are determined using a qualified LC/MS method that measured the intact mass of the analog. Each peptide and an analog as an internal standard are extracted from 100% specie specified plasma using methanol with 0.1% formic acid. A Thermo Q-Exactive, High Resolution Instrument, and a Thermo Easy Spray PepMap are combined for LC/MS detection.

[3] = target: T2, human glucagon receptor (GcgR) (Homo sapiens, UniProt P47871); assay: Radioligand competition binding (SPA), human GcgR membranes
T2 construct: expressed in transfected cells; host or cells: HEK293 (membranes)
T2 sequence (P47871 26-477): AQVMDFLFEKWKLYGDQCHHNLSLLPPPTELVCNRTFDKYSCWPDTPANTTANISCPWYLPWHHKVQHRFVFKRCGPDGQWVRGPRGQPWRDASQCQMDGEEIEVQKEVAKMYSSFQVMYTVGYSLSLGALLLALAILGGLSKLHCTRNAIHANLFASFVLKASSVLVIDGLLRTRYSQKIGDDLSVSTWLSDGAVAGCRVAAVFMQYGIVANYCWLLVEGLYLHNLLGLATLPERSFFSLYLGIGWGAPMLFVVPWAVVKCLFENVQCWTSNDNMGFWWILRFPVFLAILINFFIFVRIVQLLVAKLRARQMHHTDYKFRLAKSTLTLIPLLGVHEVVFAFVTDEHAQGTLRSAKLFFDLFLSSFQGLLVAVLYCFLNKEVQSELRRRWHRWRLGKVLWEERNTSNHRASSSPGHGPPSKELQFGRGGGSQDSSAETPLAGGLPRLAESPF
Description: as §1, §2

GLP-1 receptor (GLP-1R) = target: T3, GLP-1 receptor (GLP-1R) (Homo sapiens, UniProt P43220); assay: Radioligand competition binding (SPA), human GLP-1R membranes
T3 construct: expressed in transfected cells; host or cells: HEK293 (membranes)
T3 sequence (P43220 24-463): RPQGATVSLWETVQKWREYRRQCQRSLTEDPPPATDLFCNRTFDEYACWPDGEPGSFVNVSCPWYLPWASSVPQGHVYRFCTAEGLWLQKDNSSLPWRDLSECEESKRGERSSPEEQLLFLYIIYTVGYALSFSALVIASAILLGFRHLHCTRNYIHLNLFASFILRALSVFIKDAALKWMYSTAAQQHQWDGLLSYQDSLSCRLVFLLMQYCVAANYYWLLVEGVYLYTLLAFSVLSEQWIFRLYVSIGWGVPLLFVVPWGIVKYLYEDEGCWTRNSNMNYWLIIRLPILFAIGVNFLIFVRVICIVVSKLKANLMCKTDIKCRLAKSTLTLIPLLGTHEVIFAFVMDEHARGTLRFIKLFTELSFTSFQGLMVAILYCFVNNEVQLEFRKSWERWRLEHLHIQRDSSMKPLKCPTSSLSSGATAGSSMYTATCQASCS
Description: as §1, §2

`CC[C@H](C)[C@H](NC(=O)[C@H](Cc1ccccc1)NC(=O)[C@H](C)NC(=O)[C@](C)(CCCCN)NC(=O)[C@H](CCC(N)=O)NC(=O)[C@H](C)NC(=O)[C@H](CCCCNC(=O)COCCOCCNC(=O)COCCOCCNC(=O)CC[C@H](NC(=O)CCCCCCCCCCCCCCCCCCC(=O)O)C(=O)O)NC(=O)[C@H](CCCCN)NC(=O)[C@H](CC(=O)O)NC(=O)[C@H](CC(C)C)NC(=O)[C@](C)(CC(C)C)NC(=O)[C@@H](NC(=O)[C@H](CO)NC(=O)[C@H](Cc1ccc(O)cc1)NC(=O)[C@H](CC(=O)O)NC(=O)[C@H](CO)NC(=O)[C@@H](NC(=O)[C@H](Cc1ccccc1)NC(=O)[C@@H](NC(=O)CNC(=O)[C@H](CCC(N)=O)NC(=O)C(C)(C)NC(=O)[C@@H](N)Cc1ccc(O)cc1)[C@@H](C)O)[C@@H](C)O)[C@@H](C)CC)C(=O)N[C@@H](CCC(=O)O)C(=O)N[C@@H](Cc1ccc(O)cc1)C(=O)N[C@@H](CC(C)C)C(=O)N[C@@H](CC(C)C)C(=O)N[C@@H](CCC(=O)O)C(=O)NCC(=O)NCC(=O)N1CCC[C@H]1C(=O)N[C@@H](CO)C(=O)N[C@@H](CO)C(=O)NCC(=O)N[C@@H](C)C(=O)N1CCC[C@H]1C(=O)N1CCC[C@H]1C(=O)N1CCC[C@H]1C(=O)N[C@@H](CO)C(N)=O` [Example 3] showed a Ki [1] of 0.0446 nM, a CL/F [2] of 6.9 mL/h/kg and a Tmax [2] of 16 h. For the same compound, the half-life [2] was 19.2 h, the AUCINF_D_obs [2] was 146 hr*kg*nmol/L/nmol and the Cmax/D [2] was 2.5 kg*nmol/L/nmol. The Ki [3] was 12 nM and the Ki (GLP-1 receptor (GLP-1R)) was 6.06 nM.

For `CC[C@H](C)[C@H](NC(=O)[C@H](Cc1ccccc1)NC(=O)[C@H](C)NC(=O)[C@H](CCC(N)=O)NC(=O)[C@H](C)NC(=O)[C@H](C)NC(=O)[C@H](CCCCNC(=O)COCCOCCNC(=O)COCCOCCNC(=O)CC[C@H](NC(=O)CCCCCCCCCCCCCCCCCCC(=O)O)C(=O)O)NC(=O)[C@H](CCCCN)NC(=O)[C@H](CC(=O)O)NC(=O)[C@H](CC(C)C)NC(=O)[C@](C)(CC(C)C)NC(=O)[C@@H](NC(=O)[C@H](CO)NC(=O)[C@H](Cc1ccc(O)cc1)NC(=O)[C@H](CC(=O)O)NC(=O)[C@H](CO)NC(=O)[C@@H](NC(=O)[C@H](Cc1ccccc1)NC(=O)[C@@H](NC(=O)CNC(=O)[C@H](CCC(N)=O)NC(=O)C(C)(C)NC(=O)[C@@H](N)Cc1ccc(O)cc1)[C@@H](C)O)[C@@H](C)O)[C@@H](C)CC)C(=O)N[C@@H](CCC(=O)O)C(=O)N[C@@H](Cc1ccc(O)cc1)C(=O)N[C@@H](CC(C)C)C(=O)N[C@@H](CC(C)C)C(=O)N[C@@H](CCC(=O)O)C(=O)NCC(=O)NCC(=O)N1CCC[C@H]1C(=O)N[C@@H](CO)C(=O)N[C@@H](CO)C(=O)NCC(=O)N[C@@H](C)C(=O)N1CCC[C@H]1C(=O)N1CCC[C@H]1C(=O)N1CCC[C@H]1C(=O)N[C@@H](CO)C(N)=O` [Example 6] (H-Y[Aib]QGTFTSDYSI[αMeL]LDKK([AEEA-AEEA-γGlu-C20 diacid])AAQAFIEYLLEGGPSSGAPPPS-NH2; N-terminus assumed), the Ki [1] was 0.249 nM, the Ki [3] was 0.835 nM and the Ki (GLP-1 receptor (GLP-1R)) was 36.7 nM.

With `CC[C@H](C)[C@H](NC(=O)[C@H](Cc1ccccc1)NC(=O)[C@H](C)NC(=O)[C@H](Cc1c[nH]cn1)NC(=O)[C@H](CCC(N)=O)NC(=O)[C@H](C)NC(=O)[C@H](CCCCNC(=O)COCCOCCNC(=O)COCCOCCNC(=O)CC[C@H](NC(=O)CCCCCCCCCCCCCCCCCCC(=O)O)C(=O)O)NC(=O)[C@H](CCCCN)NC(=O)[C@H](CC(=O)O)NC(=O)[C@H](CC(C)C)NC(=O)[C@](C)(CC(C)C)NC(=O)[C@@H](NC(=O)[C@H](CO)NC(=O)[C@H](Cc1ccc(O)cc1)NC(=O)[C@H](CC(=O)O)NC(=O)[C@H](CO)NC(=O)[C@@H](NC(=O)[C@H](Cc1ccccc1)NC(=O)[C@@H](NC(=O)CNC(=O)[C@H](CCC(N)=O)NC(=O)C(C)(C)NC(=O)[C@@H](N)Cc1ccc(O)cc1)[C@@H](C)O)[C@@H](C)O)[C@@H](C)CC)C(=O)N[C@@H](CCC(=O)O)C(=O)N[C@@H](Cc1ccc(O)cc1)C(=O)N[C@@H](CC(C)C)C(=O)N[C@@H](CC(C)C)C(=O)N[C@@H](CCC(=O)O)C(=O)NCC(=O)NCC(=O)N1CCC[C@H]1C(=O)N[C@@H](CO)C(=O)N[C@@H](CO)C(=O)NCC(=O)N[C@@H](C)C(=O)N1CCC[C@H]1C(=O)N1CCC[C@H]1C(=O)N1CCC[C@H]1C(=O)N[C@@H](CO)C(N)=O` [Example 7] (H-Y[Aib]QGTFTSDYSI[αMeL]LDKK([AEEA-AEEA-γGlu-C20 diacid])AQHAFIEYLLEGGPSSGAPPPS-NH2) the Ki [1] was 0.11 nM, the Ki [3] was 16.3 nM and the Ki (GLP-1 receptor (GLP-1R)) was 21.4 nM.

`CC[C@H](C)[C@H](NC(=O)[C@H](Cc1ccccc1)NC(=O)[C@H](C)NC(=O)[C@H](Cc1c[nH]cn1)NC(=O)[C@H](CCC(N)=O)NC(=O)[C@H](C)NC(=O)[C@H](CCCCNC(=O)COCCOCCNC(=O)CC[C@H](NC(=O)CCCCCCCCCCCCCCCCCCC(=O)O)C(=O)O)NC(=O)[C@H](CCCCN)NC(=O)[C@H](CC(=O)O)NC(=O)[C@H](CC(C)C)NC(=O)[C@](C)(CC(C)C)NC(=O)[C@@H](NC(=O)[C@H](CO)NC(=O)[C@H](Cc1ccc(O)cc1)NC(=O)[C@H](CC(=O)O)NC(=O)[C@H](CO)NC(=O)[C@@H](NC(=O)[C@H](Cc1ccccc1)NC(=O)[C@@H](NC(=O)CNC(=O)[C@H](CCC(N)=O)NC(=O)C(C)(C)NC(=O)[C@@H](N)Cc1ccc(O)cc1)[C@@H](C)O)[C@@H](C)O)[C@@H](C)CC)C(=O)N[C@@H](CCC(=O)O)C(=O)N[C@@H](Cc1ccc(O)cc1)C(=O)N[C@@H](CC(C)C)C(=O)N[C@@H](CC(C)C)C(=O)N[C@@H](CCC(=O)O)C(=O)NCC(=O)NCC(=O)N1CCC[C@H]1C(=O)N[C@@H](CO)C(=O)N[C@@H](CO)C(=O)NCC(=O)N[C@@H](C)C(=O)N1CCC[C@H]1C(=O)N1CCC[C@H]1C(=O)N1CCC[C@H]1C(=O)N[C@@H](CO)C(N)=O` [Example 10] (H-Y[Aib]QGTFTSDYSI[αMeL]LDKK([AEEA-γGlu-C20 diacid])AQHAFIEYLLEGGPSSGAPPPS-NH2; N-terminus assumed) showed a Ki [1] of 0.118 nM, a CL/F [2] of 4.9 mL/h/kg and a Tmax [2] of 24 h. The half-life [2] was 23.4 h, the AUCINF_D_obs [2] was 203.5 hr*kg*nmol/L/nmol and the Cmax/D [2] was 3.1 kg*nmol/L/nmol. For the same compound, the Ki [3] was 7.37 nM and the Ki (GLP-1 receptor (GLP-1R)) was 12 nM.

Compound `CC[C@H](C)[C@H](NC(=O)[C@H](Cc1ccccc1)NC(=O)[C@H](C)NC(=O)C(C)(C)NC(=O)[C@H](CCC(N)=O)NC(=O)[C@H](C)NC(=O)[C@H](CCCCNC(=O)COCCOCCNC(=O)CC[C@H](NC(=O)CCCCCCCCCCCCCCCCCCC(=O)O)C(=O)O)NC(=O)[C@H](CCCCN)NC(=O)[C@H](CC(=O)O)NC(=O)[C@H](CC(C)C)NC(=O)[C@](C)(CC(C)C)NC(=O)[C@@H](NC(=O)[C@H](CO)NC(=O)[C@H](Cc1ccc(O)cc1)NC(=O)[C@H](CC(=O)O)NC(=O)[C@H](CO)NC(=O)[C@@H](NC(=O)[C@H](Cc1ccccc1)NC(=O)[C@@H](NC(=O)CNC(=O)[C@H](CCC(N)=O)NC(=O)C(C)(C)NC(=O)[C@@H](N)Cc1ccc(O)cc1)[C@@H](C)O)[C@@H](C)O)[C@@H](C)CC)C(=O)N[C@@H](CCC(=O)O)C(=O)N[C@@H](Cc1ccc(O)cc1)C(=O)N[C@@H](CC(C)C)C(=O)N[C@@H](CC(C)C)C(=O)N[C@@H](CCC(=O)O)C(=O)NCC(=O)NCC(=O)N1CCC[C@H]1C(=O)N[C@@H](CO)C(=O)N[C@@H](CO)C(=O)NCC(=O)N[C@@H](C)C(=O)N1CCC[C@H]1C(=O)N1CCC[C@H]1C(=O)N1CCC[C@H]1C(=O)N[C@@H](CO)C(N)=O` [Example 12] has a CL/F [2] of 5.1 mL/h/kg, a Tmax [2] of 24 h and a half-life [2] of 26.5 h. It also gave an AUCINF_D_obs [2] of 197.1 hr*kg*nmol/L/nmol, a Cmax/D [2] of 3.7 kg*nmol/L/nmol and a Ki [3] of 5.6 nM.
